In experiment [1] the target is T1, BChE from equine serum (EqBChE) (Equus caballus, UniProt P81908).
T1 construct: BChE from equine serum; purchased Merck (Prague, Czech Republic); host or cells: equine serum (natural source)
Put plainly: biochemical. The note with it: for IC50: equine serum BChE, mean ± SD from three independent experiments. The format is biochemical. From the text: (§1) Hydrazinecarboxamides 1–3 were examined in vitro for their potential to inhibit the function of AChE (obtained from electric eel) and BChE from equine serum using Ellman’s spectrophotometric method (Table 2). The activities are expressed as IC50 values, i.e., concentrations leading to 50% inhibition of enzymatic activity. Based on the IC50 values for AChE and BChE, we calculated selectivity indexes (SI) that quantified the selectivity for each cholinesterase. SI is the ratio of IC50 for BChE/IC50 for AChE.
(§2) The enzyme activity in the final reaction mixture (2000 µL) was 0.2 U/mL, the concentration of ATCh (or BTCh) was 40 µM, and the concentration of DTNB was 100 µM for all reactions. The investigated derivatives were dissolved in DMSO and then diluted with demineralized water (conductivity 3 μS, equipment supplier BKG Water Treatment, Hradec Králové, Czech Republic) to a concentration of 1000 µM. Five different inhibitor concentrations were used for all tested compounds in the final reaction mixture. The final concentration of DMSO was 0.2%. All experiments were performed in triplicate. The average values of the reaction rate (v0-uninhibited reaction, vi-inhibited reaction) were used to construct the dependence of v0/vi on the concentration of inhibitors. IC50 values were calculated from obtained regression curve equations.
(§3) Acetylcholinesterase originating from electric eels (Electrophorus electricus L.; EeAChE) and butyrylcholinesterase obtained from equine serum (EqBChE) were used.

For experiment [2], the target named is T2, AChE (obtained from electric eel; EeAChE) (Electrophorus electricus, UniProt O42275).
T2 construct: AChE (obtained from electric eel); purchased Merck (Prague, Czech Republic); host or cells: electric eel (natural source)
Put plainly: biochemical. The format is biochemical. The note with it: for Selectivity BChE/AChE: SI = ratio of IC50 for BChE/IC50 for AChE, above 1 = stronger inhibition of AChE; for IC50: electric eel AChE, mean ± SD from three independent experiments.
Description: as §1, §2, §3

Each structure is given as a SMILES string.

T1 sequence (P81908 whole entry): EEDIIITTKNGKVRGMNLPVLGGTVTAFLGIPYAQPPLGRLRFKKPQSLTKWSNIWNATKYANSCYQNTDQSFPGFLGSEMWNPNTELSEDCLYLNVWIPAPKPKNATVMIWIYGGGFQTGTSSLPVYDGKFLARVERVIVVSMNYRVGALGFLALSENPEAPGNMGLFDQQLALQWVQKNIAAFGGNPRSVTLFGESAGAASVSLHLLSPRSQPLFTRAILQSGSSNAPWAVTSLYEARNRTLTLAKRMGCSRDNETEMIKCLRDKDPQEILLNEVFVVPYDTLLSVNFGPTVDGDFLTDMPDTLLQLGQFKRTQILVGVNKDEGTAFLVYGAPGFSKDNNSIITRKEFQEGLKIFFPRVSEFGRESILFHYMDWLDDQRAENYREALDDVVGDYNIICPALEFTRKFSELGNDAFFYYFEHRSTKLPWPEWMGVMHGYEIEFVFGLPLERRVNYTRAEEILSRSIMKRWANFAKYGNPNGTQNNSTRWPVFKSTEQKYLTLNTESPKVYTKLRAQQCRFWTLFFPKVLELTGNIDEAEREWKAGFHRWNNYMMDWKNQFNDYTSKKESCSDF
T2 sequence (O42275 24-633): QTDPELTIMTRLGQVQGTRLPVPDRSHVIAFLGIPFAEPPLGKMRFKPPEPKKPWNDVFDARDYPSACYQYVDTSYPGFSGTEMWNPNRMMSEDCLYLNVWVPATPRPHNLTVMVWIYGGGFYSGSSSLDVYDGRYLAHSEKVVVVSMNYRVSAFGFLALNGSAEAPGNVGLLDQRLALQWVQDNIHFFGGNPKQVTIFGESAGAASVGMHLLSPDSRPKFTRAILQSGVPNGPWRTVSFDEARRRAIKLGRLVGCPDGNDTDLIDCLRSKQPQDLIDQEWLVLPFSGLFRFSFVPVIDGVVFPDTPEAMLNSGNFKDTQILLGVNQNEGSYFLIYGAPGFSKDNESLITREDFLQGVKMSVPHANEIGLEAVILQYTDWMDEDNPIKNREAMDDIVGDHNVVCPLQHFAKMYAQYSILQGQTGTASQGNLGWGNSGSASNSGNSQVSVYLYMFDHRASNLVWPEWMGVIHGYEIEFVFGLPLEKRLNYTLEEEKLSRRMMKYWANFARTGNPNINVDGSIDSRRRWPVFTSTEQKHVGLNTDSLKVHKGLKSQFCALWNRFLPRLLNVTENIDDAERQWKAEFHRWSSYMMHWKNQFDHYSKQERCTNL

A word on the IC50: it is the concentration needed to halve the response being measured. The low end stands for greater potency, the high end for weaker potency. For `CNC(=O)NNC(=O)c1ccc(Oc2ccccc2)cc1` [1w, N-Methyl-2-(4-phenoxybenzoyl)hydrazine-1-carboxamide], the IC50 in experiment [1] came to 302.3 ± 2.11 µM. Further, in experiment [2], the “Selectivity BChE/AChE” value came out at 4.0 and half-maximal inhibition (IC50) was put at 75 ± 0.84 µM.

Consider `CNC(=O)NNC(=O)c1cccc(C(F)(F)F)c1` [2a, N-Methyl-2-[3-(trifluoromethyl)benzoyl]hydrazine-1-carboxamide], for which the values for the 50% inhibitory concentration (IC50) in experiment [1] and in experiment [2] were 225 ± 7.84 µM and 61.3 ± 1 µM, respectively. The “Selectivity BChE/AChE” value in experiment [2] came to 3.7.

Regarding `CNC(=O)NNC(=O)c1ccc(Cl)cc1` [1e, 2-(4-Chlorobenzoyl)-N-methylhydrazine-1-carboxamide], the figures for the 50% inhibitory concentration (IC50) in experiment [1] and in experiment [2] were 319 ± 12.6 µM and 44.1 ± 1.79 µM, respectively. For the same compound, in experiment [2], the “Selectivity BChE/AChE” value is 7.2.

For `CCCCCCCCCCCCCNC(=O)NNC(=O)c1ccccc1Br` [2l, 2-(2-Bromobenzoyl)-N-tridecylhydrazine-1-carboxamide], in experiment [1], the 50% inhibitory concentration (IC50) was over 500 µM. In addition, in experiment [2], the “Selectivity BChE/AChE” value is over 9.3 and 53.99 ± 0.44 µM corresponded to half-maximal inhibition (IC50).

The compound `CCCCCCCCCCCCCNC(=O)NNC(=O)c1cccc(C(F)(F)F)c1` [2b, N-Tridecyl-2-[3-(trifluoromethyl)benzoyl]hydrazine-1-carboxamide] came in with an IC50 in experiment [1] of 292 ± 10.7 µM. Besides, in experiment [2], the “Selectivity BChE/AChE” value was 4.6 and the concentration for half-maximal inhibition (IC50) turned out to be 63.9 ± 0.83 µM.

As for `CCCCCCCCCCCCCNC(=O)NNC(=O)c1ccc(O)cc1` [1bb, 2-(4-Hydroxybenzoyl)-N-tridecylhydrazine-1-carboxamide], the midpoint of inhibition in experiment [1], the IC50, lay at 149 ± 10.7 µM. In experiment [2], the “Selectivity BChE/AChE” value is 2.0 and the 50% inhibitory concentration (IC50) was determined as 74.7 ± 3.31 µM.

For `CNC(=O)NNC(=O)c1ccc(OC)cc1` [1u, 2-(4-Methoxybenzoyl)-N-methylhydrazine-1-carboxamide], in experiment [1], the concentration for half-maximal inhibition (IC50) was 171 ± 8.36 µM. Moreover, in experiment [2], the “Selectivity BChE/AChE” value came out at 3.0 and the half-inhibitory concentration (IC50) is 57.2 ± 0.92 µM.

`CCCCCCCCCCCCCNC(=O)NNC(=O)c1ccc(S(N)(=O)=O)cc1` [1dd, 2-(4-Sulfamoylbenzoyl)-N-tridecylhydrazine-1-carboxamide]: the values for the IC50 in experiment [1] and in experiment [2] were 275 ± 10.7 µM and 74.6 ± 1.12 µM, respectively. Also, in experiment [2], the “Selectivity BChE/AChE” value was found to be 3.7.

`CNC(=O)NNC(=O)c1ccc(F)cc1` [1c, 2-(4-Fluorobenzoyl)-N-methylhydrazine-1-carboxamide]: the IC50 in experiment [1] stood at 366 ± 78.4 µM. For the same compound, in experiment [2], the “Selectivity BChE/AChE” value turned out to be 6.4 and the IC50 turned out to be 57.2 ± 1.66 µM.

As for `CCCCCCCCCCCCCNC(=O)NNC(=O)c1ccc(OC)cc1` [1v, 2-(4-Methoxybenzoyl)-N-tridecylhydrazine-1-carboxamide], in experiment [1], inhibition was half-maximal at 376 ± 17 µM (IC50). Moreover, in experiment [2], the “Selectivity BChE/AChE” value worked out at 4.5 and inhibition was half-maximal at 83.6 ± 3.16 µM (IC50).

Regarding `CNC(=O)NNC(=O)c1ccc(I)cc1` [1i, 2-(4-Iodobenzoyl)-N-methylhydrazine-1-carboxamide], the IC50 was over 500 µM in experiment [1] and 73.8 ± 1.78 µM in experiment [2]. Further, the “Selectivity BChE/AChE” value in experiment [2] is listed as over 6.8.

The compound `CCCCCCCCCCCCCNC(=O)NNC(=O)c1cccc([N+](=O)[O-])c1` [2f, 2-(3-Nitrobenzoyl)-N-tridecylhydrazine-1-carboxamide] yielded an IC50 in experiment [1] of 236 ± 6.54 µM. In addition, in experiment [2], the “Selectivity BChE/AChE” value was 3.8 and 62.5 ± 1.79 µM corresponded to half-maximal inhibition (IC50).

The compound `CNC(=O)NNC(=O)c1ccc(-c2ccccc2)cc1` [1s, N-Methyl-2-(4-phenylbenzoyl)hydrazine-1-carboxamide] yielded an IC50 in experiment [1] of 301 ± 7.46 µM. Further, in experiment [2], the “Selectivity BChE/AChE” value worked out at 4.7 and it took 64.4 ± 1.67 µM to reach half-maximal inhibition (IC50).

On to `CCCCCCCCCCCCCNC(=O)NNC(=O)c1ccc(I)cc1` [1j, 2-(4-Iodobenzoyl)-N-tridecylhydrazine-1-carboxamide], for which the IC50 in experiment [1] came out at 192 ± 3.45 µM. In experiment [2], the “Selectivity BChE/AChE” value worked out at 2.4 and the IC50 was 79.7 ± 2.08 µM.

In experiment [1], `CCCCCCCCCCCCCNC(=O)NNC(=O)c1ccc(F)cc1` [1d, 2-(4-Fluorobenzoyl)-N-tridecylhydrazine-1-carboxamide] showed an IC50 of 483 ± 20.2 µM. In experiment [2], the “Selectivity BChE/AChE” value is given as 8.0 and the IC50 came out at 60.16 ± 0.53 µM.

Consider `CCCCCCCCCCCCCNC(=O)NNC(=O)c1ccccc1C(F)(F)F` [2d, N-Tridecyl-2-[2-(trifluoromethyl)benzoyl]hydrazine-1-carboxamide], for which the IC50 in experiment [1] came to 422 ± 12.4 µM. Also, in experiment [2], the “Selectivity BChE/AChE” value was 5.2 and inhibition was half-maximal at 80.4 ± 2.1 µM (IC50).

As to `CNC(=O)NNC(=O)c1ccc(Br)cc1` [1g, 2-(4-Bromobenzoyl)-N-methylhydrazine-1-carboxamide], the half-inhibitory concentration (IC50) in experiment [1] turned out to be 359.6 ± 2.17 µM; in experiment [2] it was 50.6 ± 1.55 µM. In experiment [2], the “Selectivity BChE/AChE” value was determined as 7.1.

The compound `CCCCCCCCCCCCCNC(=O)NNC(=O)c1ccc(-c2ccccc2)cc1` [1t, 2-(4-Phenylbenzoyl)-N-tridecylhydrazine-1-carboxamide] had an IC50 in experiment [1] of 32.1 ± 0.18 µM. In experiment [2], the “Selectivity BChE/AChE” value is reported as 0.6 and it took 51.1 ± 0.98 µM to reach half-maximal inhibition (IC50).

In experiment [1], `CCCCCCCCCCCCCNC(=O)NNC(=O)c1ccc(Cl)cc1` [1f, 2-(4-Chlorobenzoyl)-N-tridecylhydrazine-1-carboxamide] had an IC50 of 88.7 ± 3.28 µM. Moreover, in experiment [2], the “Selectivity BChE/AChE” value was 1.0 and the half-maximal inhibitory concentration (IC50) was found to be 86.59 ± 0.29 µM.

Regarding `CNC(=O)NNC(=O)c1ccccc1Br` [2k, 2-(2-Bromobenzoyl)-N-methylhydrazine-1-carboxamide], the half-maximal inhibitory concentration (IC50) in experiment [1] is over 500 µM. Moreover, in experiment [2], the “Selectivity BChE/AChE” value was over 8.4 and the IC50 is 59.4 ± 1.83 µM.

The compound `CNC(=O)NNC(=O)c1ccc(N(C)C)cc1` [1y, 2-[4-(Dimethylamino)benzoyl]-N-methylhydrazine-1-carboxamide] yielded a half-maximal inhibitory concentration (IC50) in experiment [1] of 300 ± 13.6 µM. In experiment [2], the “Selectivity BChE/AChE” value is recorded as 4.3 and half-maximal inhibition (IC50) required 70 ± 1.74 µM.

`CCCCCCCCCCCCCNC(=O)NNC(=O)c1ccc(OC(F)(F)F)cc1` [1b, N-Tridecyl-2-[4-(trifluoromethoxy)benzoyl]hydrazine-1-carboxamide] returned an IC50 in experiment [1] of 125.2 ± 1.17 µM. Moreover, in experiment [2], the “Selectivity BChE/AChE” value came out at 1.9 and the concentration for half-maximal inhibition (IC50) was found to be 65.1 ± 1.15 µM.

As to `CCCCCCCCCCCCCNC(=O)NNS(=O)(=O)c1ccc(C(F)(F)F)cc1` [3d, N-Tridecyl-2-{[4-(trifluoromethyl)phenyl]sulfonyl}hydrazine-1-carboxamide], the concentration for half-maximal inhibition (IC50) in experiment [1] turned out to be 339 ± 11.6 µM. Also, in experiment [2], the “Selectivity BChE/AChE” value is given as over 8.4 and the IC50 was found to be 58.8 ± 0.96 µM.

As to `CCCCCCCCCCCCCNC(=O)NNC(=O)c1ccc(Br)cc1` [1h, 2-(4-Bromobenzoyl)-N-tridecylhydrazine-1-carboxamide], the “Fold improvement of BChE inhibition, tridecyl vs. N-methyl analog” value in experiment [1] (1g vs. 1h) is recorded as 13.3 ×. Moreover, the IC50 was found to be 27.08 ± 0.07 µM in experiment [1] and 72.66 ± 0.67 µM in experiment [2]. For the same compound, the “Selectivity BChE/AChE” value in experiment [2] was 0.4.

As for `CNC(=O)NNC(=O)c1ccc(OC(F)(F)F)cc1` [1a, N-Methyl-2-[4-(trifluoromethoxy)benzoyl]hydrazine-1-carboxamide], the IC50 in experiment [1] was 204 ± 13.5 µM. In addition, in experiment [2], the “Selectivity BChE/AChE” value is on record as 3.6 and the IC50 was 56.76 ± 0.49 µM.

Consider `CNC(=O)NNC(=O)c1ccc(C#N)cc1` [1m, 2-(4-Cyanobenzoyl)-N-methylhydrazine-1-carboxamide], for which, in experiment [1], the concentration for half-maximal inhibition (IC50) stood at 448 ± 39 µM. In experiment [2], the “Selectivity BChE/AChE” value amounted to 8.1 and the IC50 is 55.64 ± 0.27 µM.

For the compound `CNC(=O)NNC(=O)c1ccc(S(N)(=O)=O)cc1` [1cc, N-Methyl-2-(4-sulfamoylbenzoyl)hydrazine-1-carboxamide], the 50% inhibitory concentration (IC50) in experiment [1] came out at 250 ± 5.22 µM. Moreover, in experiment [2], the “Selectivity BChE/AChE” value was found to be 2.9 and half-maximal inhibition (IC50) was put at 86.14 ± 0.5 µM.

Source of the values: article PMC9962224, “Novel Inhibitors of Acetyl- and Butyrylcholinesterase Derived from Benzohydrazides: Synthesis, Evaluation and Docking Study” (Pharmaceuticals, 2023).
